Data reported in US11673897B2, “Compounds for the treatment of kinase-dependent disorders” (Exelixis, Inc., priority 2018, dated 2023).

What was measured:
Format in all cases: cell-based
KDR = KDR (Homo sapiens (Human), UniProt P35968); test: KDR autophosphorylation ELISA in HUVEC cells; conditions: cellular, VEGF165-stimulated, phospho-KDR ELISA
Method in brief: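 Read-out: phospho-KDR ELISA on cell lysates, quantified against a phospho-KDR standard, normalised to VEGF-stimulated DMSO (100%) and unstimulated (0%) wells, IC50 by 4-parameter fit. Cells were 24 h serum-starved HUVEC given compound for 1 h, then 100 ng/mL VEGF165 for 5 min.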

Mer = Mer (Homo sapiens (Human), UniProt Q12866); test: Mer autophosphorylation ELISA in transient transfected 293A cells; conditions: cellular, MERTK-transfected 293A cells, phospho-Mer ELISA
Protocol: 293A cells (Thermo Fisher #R70507) were seeded at 1.5×10^6 cells/well onto 100 mm dish (Greiner #664169), in DMEM (Thermo Fisher #11995-040) containing 10% FBS (Thermo Fisher #26140-079), 1% MEM NEAA (Thermo Fisher #11140-050), 1% GlutaMax (Thermo Fisher #35050-061), and 1% Penicillin Streptomycin (Thermo Fisher #15140-122). 293A cells were incubated at 37° C., 5% CO2 for 24 h and then transfected with 6 μg MERTK DNA (Genecopoeia #EX-Z8208-M02) using TransIT LT1 transfection reagent (Mirus-Bio #MIR2305). After 24 h incubation, the transfected 293A cells were seeded at 1×10^5 cells/well onto 96-well plates (Corning #3904) in DMEM growth medium overnight. Test compounds were serially diluted to produce an 8-point dose curve in fresh serum-free medium to a final concentration of 0.3% DMSO (vehicle) and added to the cells and incubated for 1 h. Cells were then immediately lysed with 150 μL of cold 1× lysis buffer [20 mM Tris, 137 mM sodium chloride, 2 mM EDTA, 10% glycerol, 1% NP-40 alternative, 1 mM activated sodium orthovanadate, 1 mM PefaBloc SC (Sigma-Aldrich #11429868001), protease/phosphatase inhibitor tablet (Thermo Fisher #A32959)]. Lysates were clarified by centrifugation and 50 μL/well added into the human phospho-Mer DuoSet IC ELISA (R&D Systems #DYC2579-2). Assay was performed according to manufacturer's instructions and sample phospho-Mer concentrations were extrapolated using human phospho-Mer control (R&D Systems #841793) as a standard. Positive control wells (100% activity) contained DMSO-treated cell lysates. Negative control wells (0% activity) contained reference inhibitor-treated cell lysates. IC50 values were calculated by nonlinear regression analysis using a 4-parameter logistic curve fit in ActivityBase XE (IDBS).

Met = Met (Homo sapiens (Human), UniProt P08581); test: Met autophosphorylation ELISA in PC-3 cells; conditions: cellular, HGF-stimulated, phospho-Met ELISA, read-out: c-Met IC50
Method in brief: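 PC-3 cells serum-starved 3 h were treated 1 h with an 8-point compound series (0.3% DMSO), then stimulated 10 min with 100 ng/mL human HGF. Phospho-Met (panTyr) in lysates was measured by sandwich ELISA against DMSO (100%) and reference-inhibitor (0%) controls, and IC50 came from a 4-parameter logistic fit.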

AXL = AXL (Homo sapiens (Human), UniProt P30530); test: AXL autophosphorylation ELISA in A-172 cells; conditions: cellular, Gas6-stimulated, phospho-AXL ELISA
Method in brief: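 A-172 glioblastoma cells, serum-starved 24 h, took compounds for 1 h (8-point curve, 0.3% DMSO) before 15 min stimulation with 1 μg/mL recombinant human Gas6. Lysate phospho-AXL measured by ELISA against a phospho-AXL standard, normalized to DMSO (100%) and reference inhibitor (0%); IC50 from 4-parameter logistic fit.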

Chain of AXL (P30530 26-894): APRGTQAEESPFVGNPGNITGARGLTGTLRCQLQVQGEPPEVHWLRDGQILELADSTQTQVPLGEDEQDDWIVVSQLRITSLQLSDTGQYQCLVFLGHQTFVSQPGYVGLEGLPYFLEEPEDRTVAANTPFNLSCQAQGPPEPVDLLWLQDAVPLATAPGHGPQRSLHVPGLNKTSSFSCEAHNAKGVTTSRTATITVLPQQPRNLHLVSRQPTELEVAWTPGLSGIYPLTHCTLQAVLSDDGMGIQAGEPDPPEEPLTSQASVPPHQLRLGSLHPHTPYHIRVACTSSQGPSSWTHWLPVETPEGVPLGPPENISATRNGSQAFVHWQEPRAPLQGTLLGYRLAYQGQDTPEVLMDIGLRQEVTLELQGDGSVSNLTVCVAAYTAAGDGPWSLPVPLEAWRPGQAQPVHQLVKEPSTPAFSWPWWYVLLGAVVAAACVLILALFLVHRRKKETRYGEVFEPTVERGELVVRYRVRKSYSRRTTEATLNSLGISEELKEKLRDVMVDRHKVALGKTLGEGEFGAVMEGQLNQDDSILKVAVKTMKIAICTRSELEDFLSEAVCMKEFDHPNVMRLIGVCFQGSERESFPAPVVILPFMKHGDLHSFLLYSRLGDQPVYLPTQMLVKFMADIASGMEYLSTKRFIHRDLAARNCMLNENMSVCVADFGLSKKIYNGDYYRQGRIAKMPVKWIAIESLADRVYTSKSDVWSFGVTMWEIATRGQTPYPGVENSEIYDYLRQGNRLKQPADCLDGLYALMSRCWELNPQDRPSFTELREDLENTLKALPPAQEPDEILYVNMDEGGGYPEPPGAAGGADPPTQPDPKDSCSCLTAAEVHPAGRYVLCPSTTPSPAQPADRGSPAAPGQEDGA
Chain of KDR (P35968 20-1356): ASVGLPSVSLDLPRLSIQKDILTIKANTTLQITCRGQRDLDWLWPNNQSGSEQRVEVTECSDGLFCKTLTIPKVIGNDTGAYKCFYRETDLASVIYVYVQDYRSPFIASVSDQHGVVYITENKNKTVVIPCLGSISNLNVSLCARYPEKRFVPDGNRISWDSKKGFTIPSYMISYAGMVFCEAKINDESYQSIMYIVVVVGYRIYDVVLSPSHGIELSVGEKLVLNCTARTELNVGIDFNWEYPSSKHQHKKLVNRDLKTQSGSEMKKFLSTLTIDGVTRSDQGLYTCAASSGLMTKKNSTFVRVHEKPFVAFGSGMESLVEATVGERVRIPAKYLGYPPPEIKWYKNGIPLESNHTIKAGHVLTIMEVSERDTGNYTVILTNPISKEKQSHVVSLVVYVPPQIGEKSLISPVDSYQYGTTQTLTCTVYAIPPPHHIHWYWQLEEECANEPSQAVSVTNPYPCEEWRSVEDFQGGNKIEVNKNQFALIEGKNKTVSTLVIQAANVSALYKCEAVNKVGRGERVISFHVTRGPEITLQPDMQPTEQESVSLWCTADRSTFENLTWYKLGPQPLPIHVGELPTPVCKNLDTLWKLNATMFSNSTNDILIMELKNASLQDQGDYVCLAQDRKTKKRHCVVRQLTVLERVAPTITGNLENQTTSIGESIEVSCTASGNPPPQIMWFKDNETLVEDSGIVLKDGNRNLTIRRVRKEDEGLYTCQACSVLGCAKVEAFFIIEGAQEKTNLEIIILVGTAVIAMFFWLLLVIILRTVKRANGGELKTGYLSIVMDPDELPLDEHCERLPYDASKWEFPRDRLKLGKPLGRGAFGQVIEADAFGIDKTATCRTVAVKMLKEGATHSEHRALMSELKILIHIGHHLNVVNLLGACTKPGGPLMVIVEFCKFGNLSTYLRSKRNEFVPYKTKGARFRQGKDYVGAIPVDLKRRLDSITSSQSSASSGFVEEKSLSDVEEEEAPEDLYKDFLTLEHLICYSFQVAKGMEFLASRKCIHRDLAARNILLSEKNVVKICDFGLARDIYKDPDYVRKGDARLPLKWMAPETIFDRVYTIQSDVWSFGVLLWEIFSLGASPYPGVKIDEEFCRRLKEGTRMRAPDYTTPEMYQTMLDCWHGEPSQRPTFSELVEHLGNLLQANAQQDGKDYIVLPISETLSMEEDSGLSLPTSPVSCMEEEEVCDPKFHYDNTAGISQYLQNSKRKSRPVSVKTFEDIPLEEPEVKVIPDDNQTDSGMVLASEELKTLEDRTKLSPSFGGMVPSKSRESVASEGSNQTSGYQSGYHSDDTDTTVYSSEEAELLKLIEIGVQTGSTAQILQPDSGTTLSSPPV
Chain of Mer (Q12866 21-999): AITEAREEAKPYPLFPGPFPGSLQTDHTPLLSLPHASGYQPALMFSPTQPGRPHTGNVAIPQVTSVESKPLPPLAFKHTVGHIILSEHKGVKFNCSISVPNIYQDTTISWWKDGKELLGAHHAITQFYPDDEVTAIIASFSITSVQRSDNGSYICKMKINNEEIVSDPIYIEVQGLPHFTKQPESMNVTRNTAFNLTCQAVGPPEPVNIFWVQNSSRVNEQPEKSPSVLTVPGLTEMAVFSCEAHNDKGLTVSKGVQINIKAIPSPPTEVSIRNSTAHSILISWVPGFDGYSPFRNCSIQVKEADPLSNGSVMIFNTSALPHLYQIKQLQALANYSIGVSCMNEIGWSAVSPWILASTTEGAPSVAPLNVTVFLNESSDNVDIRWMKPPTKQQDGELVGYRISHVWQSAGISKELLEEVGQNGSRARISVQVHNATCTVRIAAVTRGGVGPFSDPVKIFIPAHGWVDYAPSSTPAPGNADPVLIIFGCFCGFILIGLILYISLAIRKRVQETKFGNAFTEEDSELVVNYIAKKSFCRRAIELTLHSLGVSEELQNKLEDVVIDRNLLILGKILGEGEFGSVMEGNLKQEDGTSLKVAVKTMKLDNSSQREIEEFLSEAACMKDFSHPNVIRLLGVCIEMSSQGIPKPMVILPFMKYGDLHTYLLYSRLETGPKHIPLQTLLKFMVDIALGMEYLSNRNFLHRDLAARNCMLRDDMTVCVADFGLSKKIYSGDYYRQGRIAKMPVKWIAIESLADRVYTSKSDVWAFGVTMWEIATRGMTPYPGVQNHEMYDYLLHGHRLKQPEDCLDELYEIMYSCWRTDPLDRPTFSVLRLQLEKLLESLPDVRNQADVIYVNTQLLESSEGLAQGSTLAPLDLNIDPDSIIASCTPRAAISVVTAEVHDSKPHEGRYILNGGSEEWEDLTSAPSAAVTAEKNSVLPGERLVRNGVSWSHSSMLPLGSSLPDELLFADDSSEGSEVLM
Chain of Met (P08581 25-1390): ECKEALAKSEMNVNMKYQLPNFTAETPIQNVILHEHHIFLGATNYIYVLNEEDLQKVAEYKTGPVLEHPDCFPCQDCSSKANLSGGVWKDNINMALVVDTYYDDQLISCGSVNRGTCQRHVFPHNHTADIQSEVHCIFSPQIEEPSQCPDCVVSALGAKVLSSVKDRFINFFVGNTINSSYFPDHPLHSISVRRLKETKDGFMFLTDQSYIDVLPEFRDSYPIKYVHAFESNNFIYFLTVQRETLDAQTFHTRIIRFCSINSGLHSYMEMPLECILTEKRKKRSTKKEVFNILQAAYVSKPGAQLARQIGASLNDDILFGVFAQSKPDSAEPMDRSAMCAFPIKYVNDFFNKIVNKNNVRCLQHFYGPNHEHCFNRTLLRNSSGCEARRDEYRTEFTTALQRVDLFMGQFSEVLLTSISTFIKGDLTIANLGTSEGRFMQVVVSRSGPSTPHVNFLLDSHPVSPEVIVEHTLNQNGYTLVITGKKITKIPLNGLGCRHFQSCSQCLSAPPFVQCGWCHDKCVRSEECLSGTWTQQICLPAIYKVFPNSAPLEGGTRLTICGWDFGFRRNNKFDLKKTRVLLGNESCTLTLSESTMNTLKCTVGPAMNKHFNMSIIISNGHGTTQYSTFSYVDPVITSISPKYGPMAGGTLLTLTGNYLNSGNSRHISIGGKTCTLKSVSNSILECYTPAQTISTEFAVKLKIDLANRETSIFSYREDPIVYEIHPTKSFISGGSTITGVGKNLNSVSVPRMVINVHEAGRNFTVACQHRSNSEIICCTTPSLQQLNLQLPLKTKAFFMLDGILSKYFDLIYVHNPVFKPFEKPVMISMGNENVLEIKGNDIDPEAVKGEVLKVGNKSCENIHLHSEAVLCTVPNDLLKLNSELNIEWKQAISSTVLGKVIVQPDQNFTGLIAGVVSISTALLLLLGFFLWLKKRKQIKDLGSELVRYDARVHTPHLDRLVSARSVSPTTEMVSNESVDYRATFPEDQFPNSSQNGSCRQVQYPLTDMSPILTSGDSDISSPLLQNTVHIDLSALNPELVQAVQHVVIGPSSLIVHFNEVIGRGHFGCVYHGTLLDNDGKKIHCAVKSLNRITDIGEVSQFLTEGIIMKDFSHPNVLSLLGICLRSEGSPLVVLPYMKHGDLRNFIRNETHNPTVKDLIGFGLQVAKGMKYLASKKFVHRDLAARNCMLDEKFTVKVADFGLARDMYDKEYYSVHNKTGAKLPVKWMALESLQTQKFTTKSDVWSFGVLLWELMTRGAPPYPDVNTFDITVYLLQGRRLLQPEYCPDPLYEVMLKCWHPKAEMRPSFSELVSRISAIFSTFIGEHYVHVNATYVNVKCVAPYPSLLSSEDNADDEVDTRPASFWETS

IC50 (KDR)	IC50 (Mer)	IC50 (Met)	IC50 (AXL)	SMILES
> 300 nM	> 300 nM	100 to 300 nM	100 to 300 nM	COc1ccc(COc2cc3nccc(Oc4ncc(NC(=O)C5(C(=O)Nc6ccc(F)cc6)CC5)cc4F)c3nc2OC)cc1 [Compound 120, 1-N′-[5-Fluoro-6-[[6-methoxy-7-[(4-methoxyphenyl)methoxy]-1,5-naphthyridin-4-yl]oxy]pyridin-3-yl]-1-N-(4-fluorophenyl)cyclopropane-1,1-dicarboxamide]
> 300 nM	100 to 300 nM	10 to 100 nM	10 to 100 nM	NC(=O)c1cc2c(Oc3ncc(NC(=O)C4(C(=O)Nc5ccc(F)cc5)CC4)cc3F)ccnc2cc1OCCO [Compound 39, 1-N′-[6-[6-Carbamoyl-7-(2-hydroxyethoxy)quinolin-4-yl]oxy-5-fluoropyridin-3-yl]-1-N-(4-fluorophenyl)cyclopropane-1,1-dicarboxamide]
> 300 nM	10 to 100 nM	10 to 100 nM	10 to 100 nM	COc1nc2c(Oc3ncc(NC(=O)C4(C(=O)Nc5ccc(F)cc5)CC4)cc3F)ccnc2cc1OCCCN(C)C [Compound 125, 1-N′-[6-[[7-[3-(Dimethylamino)propoxy]-6-methoxy-1,5-naphthyridin-4-yl]oxy]-5-fluoropyridin-3-yl]-1-N-(4-fluorophenyl)cyclopropane-1,1-dicarboxamide]
> 300 nM	100 to 300 nM	100 to 300 nM	100 to 300 nM	COc1nc2c(Oc3ncc(NC(=O)C4(C(=O)Nc5ccc(F)cc5)CC4)cc3F)ccnc2cc1OCC(N)=O [Compound 124, 1-N′-[6-[[7-(2-Amino-2-oxoethoxy)-6-methoxy-1,5-naphthyridin-4-yl]oxy]-5-fluoropyridin-3-yl]-1-N-(4-fluorophenyl)cyclopropane-1,1-dicarboxamide]
> 300 nM	10 to 100 nM	10 to 100 nM	10 to 100 nM	CC(O)COc1cc2nccc(Oc3ncc(NC(=O)C4(C(=O)Nc5ccc(F)cc5)CC4)cc3Cl)c2cc1C(N)=O (stereo not drawn) [Compound 51, 1-N′-[6-[6-Carbamoyl-7-(2-hydroxypropoxy)quinolin-4-yl]oxy-5-chloropyridin-3-yl]-1-N-(4-fluorophenyl)cyclopropane-1,1-dicarboxamide]
> 300 nM	10 to 100 nM	10 to 100 nM	10 to 100 nM	CCNC(=O)c1cc2c(Oc3ncc(NC(=O)C4(C(=O)Nc5ccc(F)cc5)CC4)cc3Cl)ccnc2cc1OC [Compound 20, 1-N′-[5-Chloro-6-[6-(ethylcarbamoyl)-7-methoxyquinolin-4-yl]oxypyridin-3-yl]-1-N-(4-fluorophenyl)cyclopropane-1,1-dicarboxamide]
> 300 nM	100 to 300 nM	10 to 100 nM	10 to 100 nM	CNC(=O)c1cc2c(Oc3ncc(NC(=O)C4(C(=O)Nc5ccc(F)cc5)CC4)cc3Cl)ccnc2cc1OCCO [Compound 37, 1-N′-[5-Chloro-6-[7-(2-hydroxyethoxy)-6-(methylcarbamoyl)quinolin-4-yl]oxypyridin-3-yl]-1-N-(4-fluorophenyl)cyclopropane-1,1-dicarboxamide]
> 300 nM	10 to 100 nM	10 to 100 nM	≤ 10 nM	COc1cc2nccc(Oc3ncc(NC(=O)C4(C(=O)Nc5ccc(F)cc5)CC4)cc3Cl)c2cc1-c1ncco1 [Compound 64, 1-N′-[5-Chloro-6-[7-methoxy-6-(1,3-oxazol-2-yl)quinolin-4-yl]oxypyridin-3-yl]-1-N-(4-fluorophenyl)cyclopropane-1,1-dicarboxamide]
> 300 nM	> 300 nM	> 300 nM	10 to 100 nM	COc1cc2nccc(Oc3ccc(NC(=O)C4(C(=O)Nc5ccc(F)cc5)CC4)c(C)n3)c2nc1OC [Compound 87, 1-N′-[6-[(6,7-Dimethoxy-1,5-naphthyridin-4-yl)oxy]-2-methylpyridin-3-yl]-1-N-(4-fluorophenyl)cyclopropane-1,1-dicarboxamide]
> 300 nM	10 to 100 nM	10 to 100 nM	≤ 10 nM	COc1cc2nccc(Oc3nc(F)c(NC(=O)C4(C(=O)Nc5ccc(F)cc5)CC4)cc3F)c2nc1OC [Compound 96, 1-N′-[6-[(6,7-Dimethoxy-1,5-naphthyridin-4-yl)oxy]-2,5-difluoropyridin-3-yl]-1-N-(4-fluorophenyl)cyclopropane-1,1-dicarboxamide]
> 300 nM	10 to 100 nM	10 to 100 nM	10 to 100 nM	COc1nc2c(Oc3ncc(NC(=O)C4(C(=O)Nc5ccc(F)cc5)CC4)cc3F)ccnc2cc1OCCN1CCOCC1 [Compound 123, 1-N′-[5-Fluoro-6-[[6-methoxy-7-(2-morpholin-4-ylethoxy)-1,5-naphthyridin-4-yl]oxy]pyridin-3-yl]-1-N-(4-fluorophenyl)cyclopropane-1,1-dicarboxamide]
> 300 nM	10 to 100 nM	10 to 100 nM	≤ 10 nM	CNC(=O)c1cc2c(Oc3ncc(NC(=O)C4(C(=O)Nc5ccc(F)cc5)CC4)cc3Cl)ccnc2cc1OC [Compound 19, 1-N′-[5-Chloro-6-[7-methoxy-6-(methylcarbamoyl)quinolin-4-yl]oxypyridin-3-yl]-1-N-(4-fluorophenyl)cyclopropane-1,1-dicarboxamide]
> 300 nM	10 to 100 nM	10 to 100 nM	10 to 100 nM	NC(=O)c1cc2c(Oc3ncc(NC(=O)C4(C(=O)Nc5ccc(F)cc5)CC4)cc3Cl)ccnc2cc1OCCO [Compound 38, 1-N′-[6-[6-Carbamoyl-7-(2-hydroxyethoxy)quinolin-4-yl]oxy-5-chloropyridin-3-yl]-1-N-(4-fluorophenyl)cyclopropane-1,1-dicarboxamide]
> 300 nM	10 to 100 nM	10 to 100 nM	10 to 100 nM	CNC(=O)c1cc2c(Oc3ncc(NC(=O)C4(C(=O)Nc5ccc(F)cc5)CC4)cc3Cl)ccnc2cc1OCC(C)O (stereo not drawn) [Compound 50, 1-N′-[5-Chloro-6-[7-(2-hydroxypropoxy)-6-(methylcarbamoyl)-quinolin-4-yl]oxypyridin-3-yl]-1-N-(4-fluorophenyl)cyclopropane-1,1-dicarboxamide]
> 300 nM	10 to 100 nM	100 to 300 nM	10 to 100 nM	COCCOc1cc2nccc(Oc3ncc(NC(=O)C4(C(=O)Nc5ccc(F)cc5)CC4)cc3F)c2nc1OC [Compound 116, 1-N′-[5-Fluoro-6-[[6-methoxy-7-(2-methoxyethoxy)-1,5-naphthyridin-4-yl]oxy]pyridin-3-yl]-1-N-(4-fluorophenyl)cyclopropane-1,1-dicarboxamide]
